This assay deals with T1, mTOR (Homo sapiens, UniProt P42345).
T1 construct: FLAG; made in house
The experiment in a line: In Vitro mTOR Kinase Assay (Echo), Test (a)(ii). It counts as biochemical. The note with it: table of enzyme assay Test (a)(ii); read-out: Test (a)(ii) IC50. A digest of the protocol: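 Inhibition of truncated mTOR (1362-2549, FLAG-tagged, purified from stably transfected HEK293 cells) is measured as reduced AlphaScreen signal from a phospho-T389-recognising antibody bound to the biotinylated peptide product. Kinase incubation lasts 2 hours at room temperature. Potency is given as IC50.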

T1 sequence (P42345 1362-2549): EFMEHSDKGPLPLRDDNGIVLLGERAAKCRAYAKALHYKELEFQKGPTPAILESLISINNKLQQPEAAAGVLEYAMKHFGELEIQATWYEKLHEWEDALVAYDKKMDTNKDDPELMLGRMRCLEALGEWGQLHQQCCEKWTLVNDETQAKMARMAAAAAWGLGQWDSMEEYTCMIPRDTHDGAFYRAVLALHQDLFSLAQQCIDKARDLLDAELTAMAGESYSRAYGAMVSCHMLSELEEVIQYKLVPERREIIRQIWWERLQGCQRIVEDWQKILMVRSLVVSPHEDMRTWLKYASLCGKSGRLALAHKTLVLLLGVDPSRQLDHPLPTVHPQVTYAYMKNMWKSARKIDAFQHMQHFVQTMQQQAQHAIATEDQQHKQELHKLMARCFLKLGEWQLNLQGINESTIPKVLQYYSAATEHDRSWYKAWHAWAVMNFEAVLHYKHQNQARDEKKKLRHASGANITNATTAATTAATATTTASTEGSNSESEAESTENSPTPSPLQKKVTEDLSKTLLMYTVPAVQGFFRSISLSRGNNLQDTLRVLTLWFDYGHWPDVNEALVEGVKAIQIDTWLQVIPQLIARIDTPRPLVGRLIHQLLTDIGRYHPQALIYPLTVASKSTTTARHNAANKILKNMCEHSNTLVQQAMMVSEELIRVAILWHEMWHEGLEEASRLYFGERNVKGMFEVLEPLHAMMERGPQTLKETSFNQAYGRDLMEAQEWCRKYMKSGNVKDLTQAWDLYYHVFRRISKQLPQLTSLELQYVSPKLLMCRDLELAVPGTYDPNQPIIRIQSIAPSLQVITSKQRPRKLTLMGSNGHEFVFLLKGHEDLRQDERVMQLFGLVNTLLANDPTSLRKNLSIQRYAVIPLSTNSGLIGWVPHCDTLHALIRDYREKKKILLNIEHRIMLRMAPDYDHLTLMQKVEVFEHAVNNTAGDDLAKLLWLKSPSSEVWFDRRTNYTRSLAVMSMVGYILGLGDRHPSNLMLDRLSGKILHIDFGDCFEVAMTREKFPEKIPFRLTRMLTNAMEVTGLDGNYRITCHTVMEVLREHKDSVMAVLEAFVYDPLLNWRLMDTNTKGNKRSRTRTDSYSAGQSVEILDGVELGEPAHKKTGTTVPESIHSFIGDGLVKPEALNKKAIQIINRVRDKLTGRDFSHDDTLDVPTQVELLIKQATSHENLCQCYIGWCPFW

What is called IC50 is the midpoint of a concentration-inhibition curve. As for `C[C@H]1COCCN1c1cc(C2(S(=O)(=O)c3ccccn3)CC2)nc(-c2ccc(NC(=O)NCc3ncc[nH]3)cc2)n1` [Example 36cu, 3-(1H-imidazol-2-ylmethyl)-1-[4-[4-[(3S)-3-methymorpholin-4-yl]-6-(1-pyridin-2-ylsulfonylcyclopropyl)pyrimidin-2-yl]phenyl]urea], the IC50 was determined as 68.6 nM.

Take `C[C@H]1COCCN1c1cc(C2(S(=O)(=O)c3ccncc3)CC2)nc(-c2ccc(NC(=O)NCc3ncc[nH]3)cc2)n1` [Example 36cw, 3-(1H-imidazol-2-ylmethyl)-1-[4-[4-[(3S)-3-methylmorpholin-4-yl]-6-(1-pyridin-4-ylsulfonylcyclopropyl)pyrimidin-2-yl]phenyl]urea]: the IC50 was 49.3 nM.

Consider `C[C@H]1COCCN1c1cc(C2(S(=O)(=O)c3ccncc3)CC2)nc(-c2ccc(NC(=O)NC3(CO)CC3)cc2)n1` [Example 36cx, 3-[1-(hydroxymethyl)cyclopropyl]-1-[4-[4-[(3S)-3-methylmorpholin-4-yl]-6-(1-pyridin-4-ylsulfonylcyclopropyl)pyrimidin-2-yl]phenyl]urea], for which the IC50 turned out to be 284 nM.

As for `CNC(=O)Nc1ccc(-c2nc(N3CCOC[C@@H]3C)cc(C3(S(=O)(=O)c4ccccc4)CCOCC3)n2)cc1` [Example 36cy, 1-[4-[4-[4-(benzenesulfonyl)oxan-4-yl]-6-[(3S)-3-methylmorpholin-4-yl]pyrimidin-2-yl]phenyl]-3-methylurea], the IC50 was found to be 47.8 nM.

`CCNC(=O)Nc1ccc(-c2nc(N3CCOC[C@@H]3C)cc(C3(S(=O)(=O)c4ccccc4)CCOCC3)n2)cc1` [Example 36cz, 3-[4-[4-[4-(benzenesulfonyl)oxan-4-yl]-6-[(3S)-3-methylmorpholin-4-yl]pyrimidin-2-yl]phenyl]-1-ethylurea]: the IC50 stood at 38.4 nM.

Take `CNC(=O)Nc1ccc(-c2nc(N3CCOC[C@@H]3C)cc(C3(S(=O)(=O)C4CC4)CCC3)n2)cc1` [Example 36d, 1-[4-[4-(1-cyclopropylsulfonylcyclobutyl)-6-[(3S)-3-methylmorpholin-4-yl]pyrimidin-2-yl]phenyl]-3-methylurea]: the IC50 turned out to be 3.17 nM.

`C[C@H]1COCCN1c1cc(C2(S(=O)(=O)c3ccccc3)CCOCC2)nc(-c2ccc(NC(=O)NC3CC3)cc2)n1` [Example 36da, 1-[4-[4-[4-(benzenesulfonyl)oxan-4-yl]-6-[(3S)-3-methylmorpholin-4-yl]pyrimidin-2-yl]phenyl]-3-cyclopropylurea]: the IC50 was 33.1 nM.

In the case of `C[C@H]1COCCN1c1cc(C2(S(=O)(=O)c3ccccc3)CCOCC2)nc(-c2ccc(NC(=O)NCCO)cc2)n1` [Example 36db, 1-[4-[4-[4-(benzenesulfonyl)oxan-4-yl]-6-[(3S)-3-methylmorpholin-4-yl]pyrimidin-2-yl]phenyl]-3-(2-hydroxyethyl)urea], the IC50 worked out at 20.9 nM.

In the case of `O=C(Nc1ccc(-c2nc(N3CCOCC3)cc(C3(S(=O)(=O)c4ccccc4)CC3)n2)cc1)NC1CC1` [Example 36dc, 1-[4-[4-[1-(benzenesulfonyl)cyclopropyl]-6-morpholin-4-ylpyrimidin-2-yl]phenyl]-3-cyclopropylurea], the IC50 was found to be 9.89 nM.

Turning to `CCNC(=O)Nc1ccc(-c2nc(N3CCOCC3)cc(C3(S(=O)(=O)c4ccccc4)CC3)n2)cc1` [Example 36dd, 3-[4-[4-[1-(benzenesulfonyl)cyclopropyl]-6-morpholin-4-ylpyrimidin-2-yl]phenyl]-1-ethylurea], the IC50 was determined as 2.91 nM.

`O=C(NCCO)Nc1ccc(-c2nc(N3CCOCC3)cc(C3(S(=O)(=O)c4ccccc4)CC3)n2)cc1` [Example 36de, 1-[4-[4-[1-(benzenesulfonyl)cyclopropyl]-6-morpholin-4-ylpyrimidin-2-yl]phenyl]-3-(2-hydroxyethyl)urea]: the IC50 worked out at 3.89 nM.

Consider `CNC(=O)Nc1ccc(-c2nc(N3CCOCC3)cc(C3(S(=O)(=O)c4ccccc4)CC3)n2)cc1` [Example 36df, 3-[4-[4-[1-(benzenesulfonyl)cyclopropyl]-6-morpholin-4-ylpyrimidin-2-yl]phenyl]-1-methylurea], for which the IC50 was 7.12 nM.

As for `O=C(NCCCO)Nc1ccc(-c2nc(N3CCOCC3)cc(C3(S(=O)(=O)c4ccccc4)CC3)n2)cc1` [Example 36dg, 1-[4-[4-[1-(benzenesulfonyl)cyclopropyl]-6-morpholin-4-ylpyrimidin-2-yl]phenyl]-3-(3-hydroxypropyl)urea], the IC50 is 16.4 nM.

Consider `N#CCCNC(=O)Nc1ccc(-c2nc(N3CCOCC3)cc(C3(S(=O)(=O)c4ccccc4)CC3)n2)cc1` [Example 36dh, 1-[4-[4-[1-(benzenesulfonyl)cyclopropyl]-6-morpholin-4-ylpyrimidin-2-yl]phenyl]-3-(2-cyanoethyl)urea], for which the IC50 was found to be 3.4 nM.

On to `O=C(Nc1ccc(-c2nc(N3CCOCC3)cc(C3(S(=O)(=O)c4ccccc4)CC3)n2)cc1)Nc1ncns1` [Example 36di, 1-[4-[4-[1-(benzenesulfonyl)cyclopropyl]-6-morpholin-4-ylpyrimidin-2-yl]phenyl]-3-(1,2,4-thiadiazol-5-yl)urea], for which the IC50 worked out at 9.23 nM.

For `Cn1cc(NC(=O)Nc2ccc(-c3nc(N4CCOCC4)cc(C4(S(=O)(=O)c5ccccc5)CC4)n3)cc2)cn1` [Example 36dj, 3-[4-[4-[1-(benzenesulfonyl)cyclopropyl]-6-morpholin-4-ylpyrimidin-2-yl]phenyl]-1-(1-methylpyrazol-4-yl)urea], the IC50 amounted to 8.91 nM.

As for `Cc1csc(S(=O)(=O)C2(c3cc(N4CCOC[C@@H]4C)nc(-c4ccc(NC(=O)NC5CC5)cc4)n3)CCCC2)n1` [Example 36dk, 3-cyclopropyl-1-[4-[4-[(3S)-3-methylmorpholin-4-yl]-6-[1-[(4-methyl-1,3-thiazol-2-yl)sulfonyl)cyclopentyl]pyrimidin-2-yl]phenyl]urea], the IC50 worked out at 9.05 nM.

For `Cc1csc(S(=O)(=O)C2(c3cc(N4CCOC[C@@H]4C)nc(-c4ccc(NC(=O)NCCO)cc4)n3)CCCC2)n1` [Example 36dl, 3-(2-hydroxyethyl)-1-[4-[4-[(3S)-3-methylmorpholin-4-yl]-6-[1-[(4-methyl-1,3-thiazol-2-yl)sulfonyl]cyclopentyl]pyrimidin-2-yl]phenyl]urea], the IC50 was 3.99 nM.

For `Cc1csc(S(=O)(=O)C2(c3cc(N4CCOC[C@@H]4C)nc(-c4ccc(NC(=O)NCCC#N)cc4)n3)CCCC2)n1` [Example 36dm, 3-(2-cyanoethyl)-1-[4-[4-[(3S)-3-methylmorpholin-4-yl]-6-[1-[(4-methyl-1,3-thiazol-2-yl)sulfonyl]cyclopentyl]pyrimidin-2-yl]phenyl]urea], the IC50 stood at 29.8 nM.

As to `Cc1csc(S(=O)(=O)C2(c3cc(N4CCOC[C@@H]4C)nc(-c4ccc(NC(=O)NCCCO)cc4)n3)CCCC2)n1` [Example 36dn, 3-(3-hydroxypropyl)-1-[4-[4-[(3S)-3-methylmorpholin-4-yl]-6-[1-[(4-methyl-1,3-thiazol-2-yl)sulfonyl]cyclopentyl]pyrimidin-2-yl]phenyl]urea], the IC50 amounted to 13.8 nM.

In the case of `C[C@H]1COCCN1c1cc(C2(S(=O)(=O)c3ccccc3)CC2)nc(-c2ccc(NC(=O)N3CCC(O)C3)cc2)n1` (stereo partly drawn) [Example 36do, N-[4-[4-[1-(benzenesulfonyl)cyclopropyl]-6-[(3S)-3-methylmorpholin-4-yl]pyrimidin-2-yl]phenyl]-3-hydroxypyrrolidine-1-carboxamide], the IC50 was found to be 27.7 nM.

As for `C[C@H]1COCCN1c1cc(C2(S(=O)(=O)c3ccccc3)CC2)nc(-c2ccc(NC(=O)NCC(=O)O)cc2)n1` [Example 36dp, 2-[[4-[4-[1-(benzenesulfonyl)cyclopropyl]-6-[(3S)-3-methylmorpholin-4-yl]pyrimidin-2-yl]phenyl]carbamoylamino]aceticacid], the IC50 was found to be 10.6 nM.

`C[C@H]1COCCN1c1cc(C2(S(=O)(=O)c3ccccc3)CC2)nc(-c2ccc(NC(=O)NCC(=O)N(C)C)cc2)n1` [Example 36dq, 2-[[4-[4-[1-(benzenesulfonyl)cyclopropyl]-6-[(3S)-3-methylmorpholin-4-yl]pyrimidin-2-yl]phenyl]carbamoylamino]-N,N-dimethylacetamide]: the IC50 came to 24.5 nM.

As for `C[C@H]1COCCN1c1cc(C2(S(=O)(=O)c3ccccc3)CC2)nc(-c2ccc(NC(=O)N(C)C3CC3)cc2)n1` [Example 36dr, 3-[4-[4-[1-(benzenesulfonyl)cyclopropyl]-6-[(3S)-3-methylmorpholin-4-yl]pyrimidin-2-yl]phenyl]-1-cyclopropyl-1-methylurea], the IC50 amounted to 294 nM.

As for `C[C@H]1COCCN1c1cc(C2(S(=O)(=O)c3ccccc3)CC2)nc(-c2ccc(NC(=O)NCCF)cc2)n1` [Example 36ds, 1-[4-[4-[1-(benzenesulfonyl)cyclopropyl]-6-[(3S)-3-methylmorpholin-4-yl]pyrimidin-2-yl]phenyl]-3-(2-fluoroethyl)urea], the concentration for half-maximal inhibition (IC50) was 0.973 nM.

For `C[C@H]1COCCN1c1cc(C2(S(=O)(=O)c3ccccc3)CCC2)nc(-c2ccc(NC(=O)NCCC#N)cc2)n1` [Example 36dt, 1-[4-[4-[1-(benzenesulfonyl)cyclobutyl]-6-[(3S)-3-methylmorpholin-4-yl]pyrimidin-2-yl]phenyl]-3-(2-cyanoethyl)urea], the IC50 worked out at 0.37 nM.

Consider `C[C@H]1COCCN1c1cc(C2(S(=O)(=O)c3ccccc3)CCC2)nc(-c2ccc(NC(=O)NCc3ncc[nH]3)cc2)n1` [Example 36du, 1-[4-[4-[1-(benzenesulfonyl)cyclobutyl]-6-[(3S)-3-methylmorpholin-4-yl]pyrimidin-2-yl]phenyl]-3-(1H-imidazol-2-ylmethyl)urea], for which the IC50 is 15.2 nM.

As for `C[C@H]1COCCN1c1cc(C2(S(=O)(=O)c3ccccc3)CC2)nc(-c2ccc(NC(=O)Nc3ccn(C)n3)cc2)n1` [Example 36dv, 1-[4-[4-[1-(benzenesulfonyl)cyclopropyl]-6-[(3S)-3-methylmorpholin-4-yl]pyrimidin-2-yl]phenyl]-3-(1-methypyrazol-3-yl)urea], the IC50 is 4.3 nM.

The values are drawn from patent US20090018134A1, “Compounds - 945” (AstraZeneca AB, priority 2007, published 2009).
